From patent US20250325529A1, “INHIBITORS OF FATTY ACID BINDING PROTEINS (FABPs), METHODS OF USE AND METHODS OF MAKING” (Celloram, inc., priority 2024, published 2025)

Key:
FABP3 = FABP3 (Homo sapiens (Human), UniProt P05413); test: Fluorescence (ANS) competition binding assay, FABP3; details: ANS displacement
Method: (§1) This example illustrates a two-step fluorescence binding assay study used to determine the binding affinity of the various inhibitor compounds disclosed herein with the various FABPs: FABP3, FABP4, FABP5 and FABP7. Further secondary screening studies were carried out for compounds with high binding affinities toward the FABPs and based on their ability to activate the nuclear receptors PPARα, PPARγ, or PPARδ.
(§2) Binding assays for FABP3, FABP4, FABP5 and FABP7 were carried out by fluorescence titrations. His-tagged FABPs were bacterially expressed in E. coli, purified using Ni Sepharose beads, and the equilibrium dissociation constants (Kd) that characterize their interactions with different inhibitor compounds were measured by fluorescence competition assays. The method entails two steps as described in e.g., Lin, Q. et al., “Ligand selectivity of the peroxisome proliferator-activated receptor alpha,” Biochemistry 38, 185-190, doi:10.1021/bi9816094 [pii](1999). In the first step, Kd for the association of the protein with the fluorescent fatty acid probe ANS was measured. Protein (2 μM) was titrated with ANS from a concentrated solution in DMSO. Ligand binding was monitored by following the increase in the fluorescence of the ligand upon binding to the protein, and Kd for the association of ANS with the each FABP was computed from titration curves as described in e.g., Norris, A. W. & Li, E., “Fluorometric titration of the CRABPs,” Methods Mol Biol 89, 123-139 (1998)). In the second step, Kds for binding of non-fluorescent ligands were measured by monitoring their ability to displace ANS in the binding pocket of the protein. Each FABP was precomplexed with ANS at 1:1 molar ratio and titrated with the different compounds whose binding was reflected by a decrease in probe fluorescence. Kds were extracted from the EC50 of the competition curve and the measured Kd for ANS.

FABP4 = FABP4 (Homo sapiens (Human), UniProt P15090); test: Fluorescence (ANS) competition binding assay, FABP4; details: ANS displacement
Method: as §1, §2

FABP5 = FABP5 (Homo sapiens (Human), UniProt Q01469); test: Fluorescence (ANS) competition binding assay, FABP5; details: ANS displacement
Method: as §1, §2

FABP7 = FABP7 (Homo sapiens (Human), UniProt O15540); test: Fluorescence (ANS) competition binding assay, FABP7; details: ANS displacement
Method: as §1, §2

PPARα = PPARα (Homo sapiens (Human), UniProt Q07869); test: Transcriptional activation assay in COS7 cells, PPARα; type: cell-based; details: known agonist, 5 μM
Method: COS-7 were cultured in 6-well plates and co-transfected with either a luciferase reporter driven by 3 copies of a PPRE and expression vector for either PPARδ, PPARα or PPARγ together with a vector harboring cDNA for β-galactosidase, serving as a transfection control. To test whether FABP4 or FABP5 mediate activation of their cognate receptors PPARγ and PPARδ, respectively, cells were also co-transfected with a plasmid harboring sequence of either FABP4 or FABP5. 18 h post-transfection, cells were placed in a serum-free medium and treated with agonist/compound. 18 h. later, cells were lysed, luciferase activity was assayed (Promega, WI, USA) and corrected for transfection efficiency by the activity of β-galactosidase.
Transcriptional activation assays were carried out utilizing COS7 cells as described above.

Chain of FABP5 (Q01469 whole entry, species assumed): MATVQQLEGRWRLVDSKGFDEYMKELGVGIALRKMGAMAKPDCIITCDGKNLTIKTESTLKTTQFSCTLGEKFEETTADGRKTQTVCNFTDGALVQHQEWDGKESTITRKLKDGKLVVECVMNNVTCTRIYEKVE
Chain of FABP7 (O15540 whole entry, species assumed): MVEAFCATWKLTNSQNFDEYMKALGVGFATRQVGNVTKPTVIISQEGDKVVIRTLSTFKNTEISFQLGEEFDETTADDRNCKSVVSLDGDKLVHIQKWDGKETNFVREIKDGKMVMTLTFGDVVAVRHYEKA
Chain of FABP4 (P15090 whole entry, species assumed): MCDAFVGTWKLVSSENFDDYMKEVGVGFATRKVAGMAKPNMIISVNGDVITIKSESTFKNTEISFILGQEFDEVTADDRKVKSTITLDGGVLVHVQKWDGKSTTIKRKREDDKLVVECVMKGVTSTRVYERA
Chain of FABP3 (P05413 whole entry, species assumed): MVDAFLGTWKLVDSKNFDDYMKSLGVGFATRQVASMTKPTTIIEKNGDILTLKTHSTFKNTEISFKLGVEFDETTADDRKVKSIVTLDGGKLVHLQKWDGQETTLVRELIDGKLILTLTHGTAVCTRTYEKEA
Chain of PPARα (Q07869 whole entry, species assumed): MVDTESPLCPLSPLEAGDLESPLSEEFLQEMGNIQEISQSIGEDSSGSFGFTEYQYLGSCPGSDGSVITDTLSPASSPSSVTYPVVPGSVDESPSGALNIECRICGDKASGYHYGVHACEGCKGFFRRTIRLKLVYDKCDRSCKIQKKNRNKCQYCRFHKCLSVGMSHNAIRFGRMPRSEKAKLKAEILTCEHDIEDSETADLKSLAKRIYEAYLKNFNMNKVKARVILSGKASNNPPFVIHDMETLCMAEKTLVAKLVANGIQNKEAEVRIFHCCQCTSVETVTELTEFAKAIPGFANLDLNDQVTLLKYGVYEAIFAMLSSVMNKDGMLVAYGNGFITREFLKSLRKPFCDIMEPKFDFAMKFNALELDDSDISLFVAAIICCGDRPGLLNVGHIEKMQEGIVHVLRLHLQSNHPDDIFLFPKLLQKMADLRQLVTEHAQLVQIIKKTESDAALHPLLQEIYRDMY

For `CC(C)Oc1nc(NC(=O)CSC(C)(C)C(=O)O)c(Cl)cc1Cl` [PD153, 2-((2-((3,5-dichloro-6-isopropoxypyridin-2-yl)amino)-2-oxoethyl)thio)-2-methylpropanoic acid], the Kd (FABP3) was 98 nM, the Kd (FABP4) was 96 nM and the Kd (FABP5) was 80 nM. For the same molecule, the Kd (FABP7) was 344 nM.

Molecule `CC(C)Oc1nc(NC(=O)COCC(=O)O)c(Cl)cc1Cl` [PD155, 2-(2-((3,5-dichloro-6-isopropoxypyridin-2-yl)amino)-2-oxoethoxy)acetic acid] has a Kd (FABP3) of 117 nM, a Kd (FABP4) of 79 nM and a Kd (FABP5) of 59 nM. The Kd (FABP7) was 108 nM.

For `Cc1cccc(Nc2cc(Cl)nc(SCC(=O)O)n2)c1C` [Wy-14643, reference compound], the “Activation of transcription by PPARα” value (PPARα) was “induced activation of their respective receptors”.
